Assay results as given in PubChem BioAssay (NCI).
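The compound was tested at five concentrations on cells cultured in 96-well plates, with a 48-hour exposure period. Definition used: TGI = concentration required for complete inhibition of growth.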

What was measured:
Assay in all cases: NCI anticancer screen, dose series, 48 h
LOX IMVI melanoma = test system: LOX IMVI melanoma
UACC-257 melanoma = test system: UACC-257 melanoma
HCC-2998 colon = test system: HCC-2998 colon
HOP-62 NSCLC = test system: HOP-62 NSCLC
NCI-H460 lung = test system: NCI-H460 lung
COLO 205 colon = test system: COLO 205 colon
SK-MEL-5 melanoma = test system: SK-MEL-5 melanoma
786-0 renal = test system: 786-0 renal
MDA-N = test system: MDA-N
MCF7 breast = test system: MCF7 breast
IGROV1 ovarian = test system: IGROV1 ovarian
MDA-MB-435 = test system: MDA-MB-435
SNB-19 CNS = test system: SNB-19 CNS
A549 NSCLC = test system: A549 NSCLC
OVCAR-4 ovarian = test system: OVCAR-4 ovarian
CAKI-1 renal = test system: CAKI-1 renal
PC-3 prostate = test system: PC-3 prostate
NCI-H522 lung = test system: NCI-H522 lung
OVCAR-5 ovarian = test system: OVCAR-5 ovarian
SK-MEL-2 melanoma = test system: SK-MEL-2 melanoma
HT29 colon = test system: HT29 colon
OVCAR-3 ovarian = test system: OVCAR-3 ovarian
BT-549 breast = test system: BT-549 breast
ACHN renal = test system: ACHN renal
SF-295 CNS = test system: SF-295 CNS
HCT-116 colon = test system: HCT-116 colon
NCI/ADR-RES ovarian = test system: NCI/ADR-RES ovarian
MALME-3M melanoma = test system: MALME-3M melanoma
U251 CNS = test system: U251 CNS
A498 renal = test system: A498 renal
SR leukemia = test system: SR leukemia
CCRF-CEM leukemia = test system: CCRF-CEM leukemia
UO-31 renal = test system: UO-31 renal
EKVX NSCLC = test system: EKVX NSCLC
HL-60(TB) leukemia = test system: HL-60(TB) leukemia
SK-MEL-28 melanoma = test system: SK-MEL-28 melanoma
UACC-62 melanoma = test system: UACC-62 melanoma
HS 578T breast = test system: HS 578T breast
M14 melanoma = test system: M14 melanoma
SF-268 CNS = test system: SF-268 CNS
OVCAR-8 ovarian = test system: OVCAR-8 ovarian
RPMI-8226 leukemia = test system: RPMI-8226 leukemia
MOLT-4 leukemia = test system: MOLT-4 leukemia
DU-145 prostate = test system: DU-145 prostate
K-562 leukemia = test system: K-562 leukemia
KM12 colon = test system: KM12 colon
SF-539 CNS = test system: SF-539 CNS
SW-620 colon = test system: SW-620 colon
HCT-15 colon = test system: HCT-15 colon
NCI-H226 lung = test system: NCI-H226 lung
MDA-MB-231 breast = test system: MDA-MB-231 breast
RXF 393 renal = test system: RXF 393 renal
HOP-92 NSCLC = test system: HOP-92 NSCLC
SN12C renal = test system: SN12C renal
TK-10 renal = test system: TK-10 renal
SNB-75 CNS = test system: SNB-75 CNS
NCI-H23 lung = test system: NCI-H23 lung
SK-OV-3 ovarian = test system: SK-OV-3 ovarian

O=c1cnnc2sc(=S)[nH]n12
TGI (LOX IMVI melanoma): 13.9 µM | TGI (UACC-257 melanoma): 78.4 µM | TGI (HCC-2998 colon): > 100 µM | TGI (HOP-62 NSCLC): 9.18 µM | TGI (NCI-H460 lung): > 100 µM | TGI (COLO 205 colon): > 100 µM | TGI (SK-MEL-5 melanoma): 57.9 µM | TGI (786-0 renal): 49.8 µM | TGI (MDA-N): > 100 µM | TGI (MCF7 breast): 39.8 µM | TGI (IGROV1 ovarian): 74 µM | TGI (MDA-MB-435): > 100 µM | TGI (SNB-19 CNS): > 100 µM | TGI (A549 NSCLC): > 100 µM | TGI (OVCAR-4 ovarian): 53.4 µM | TGI (CAKI-1 renal): 68.2 µM | TGI (PC-3 prostate): > 100 µM | TGI (NCI-H522 lung): 27 µM | TGI (OVCAR-5 ovarian): > 100 µM | TGI (SK-MEL-2 melanoma): > 100 µM | TGI (HT29 colon): > 100 µM | TGI (OVCAR-3 ovarian): > 100 µM | TGI (BT-549 breast): 64.4 µM | TGI (ACHN renal): > 100 µM | TGI (SF-295 CNS): > 100 µM | TGI (HCT-116 colon): > 100 µM | TGI (NCI/ADR-RES ovarian): > 100 µM | TGI (MALME-3M melanoma): > 100 µM | TGI (U251 CNS): 75.3 µM | TGI (A498 renal): > 100 µM | TGI (SR leukemia): 62.3 µM | TGI (CCRF-CEM leukemia): 12.1 µM | TGI (UO-31 renal): 52.1 µM | TGI (EKVX NSCLC): > 100 µM | TGI (HL-60(TB) leukemia): 79.9 µM | TGI (SK-MEL-28 melanoma): > 100 µM | TGI (UACC-62 melanoma): > 100 µM | TGI (HS 578T breast): > 100 µM | TGI (M14 melanoma): > 100 µM | TGI (SF-268 CNS): > 100 µM | TGI (OVCAR-8 ovarian): 34.3 µM | TGI (RPMI-8226 leukemia): 29.1 µM | TGI (MOLT-4 leukemia): 42.2 µM | TGI (DU-145 prostate): > 100 µM | TGI (K-562 leukemia): 36.8 µM | TGI (KM12 colon): > 100 µM | TGI (SF-539 CNS): > 100 µM | TGI (SW-620 colon): 24.9 µM | TGI (HCT-15 colon): 57.3 µM

O=C(c1cc(Cl)ccc1Cl)N1CCN(c2ccc(Cl)c(Cl)c2)CC1
TGI (NCI-H226 lung): > 100 µM | TGI (LOX IMVI melanoma): 84.1 µM | TGI (UACC-257 melanoma): 83.9 µM | TGI (HCC-2998 colon): > 100 µM | TGI (HOP-62 NSCLC): > 100 µM | TGI (NCI-H460 lung): 36.1 µM | TGI (SK-MEL-5 melanoma): 30.3 µM | TGI (786-0 renal): 48.5 µM | TGI (MDA-N): 96.2 µM | TGI (MCF7 breast): 72 µM | TGI (IGROV1 ovarian): > 100 µM | TGI (MDA-MB-231 breast): > 100 µM | TGI (A549 NSCLC): > 100 µM | TGI (OVCAR-4 ovarian): > 100 µM | TGI (CAKI-1 renal): > 100 µM | TGI (PC-3 prostate): 97.8 µM | TGI (NCI-H522 lung): 52.6 µM | TGI (OVCAR-5 ovarian): > 100 µM | TGI (HT29 colon): 83.9 µM | TGI (OVCAR-3 ovarian): > 100 µM | TGI (BT-549 breast): 80.8 µM | TGI (ACHN renal): > 100 µM | TGI (SF-295 CNS): > 100 µM | TGI (HCT-116 colon): > 100 µM | TGI (RXF 393 renal): 54.1 µM | TGI (MALME-3M melanoma): > 100 µM | TGI (HOP-92 NSCLC): > 100 µM | TGI (U251 CNS): > 100 µM | TGI (A498 renal): 44.1 µM | TGI (SN12C renal): > 100 µM | TGI (SR leukemia): > 100 µM | TGI (CCRF-CEM leukemia): > 100 µM | TGI (UO-31 renal): 33.8 µM | TGI (EKVX NSCLC): > 100 µM | TGI (HL-60(TB) leukemia): > 100 µM | TGI (SK-MEL-28 melanoma): > 100 µM | TGI (TK-10 renal): > 100 µM | TGI (HS 578T breast): > 100 µM | TGI (SF-268 CNS): > 100 µM | TGI (OVCAR-8 ovarian): 45.5 µM | TGI (RPMI-8226 leukemia): > 100 µM | TGI (MOLT-4 leukemia): 54.3 µM | TGI (DU-145 prostate): > 100 µM | TGI (K-562 leukemia): 85.4 µM | TGI (SNB-75 CNS): > 100 µM | TGI (NCI-H23 lung): > 100 µM | TGI (KM12 colon): 51.9 µM | TGI (SF-539 CNS): 76.4 µM | TGI (SW-620 colon): > 100 µM | TGI (HCT-15 colon): > 100 µM

C(=Nc1ccccc1C1SCCCS1)c1ccccc1
TGI (NCI-H226 lung): > 100 µM | TGI (SK-OV-3 ovarian): > 100 µM | TGI (LOX IMVI melanoma): > 100 µM | TGI (UACC-257 melanoma): > 100 µM | TGI (HCC-2998 colon): > 100 µM | TGI (HOP-62 NSCLC): > 100 µM | TGI (NCI-H460 lung): > 100 µM | TGI (COLO 205 colon): > 100 µM | TGI (SK-MEL-5 melanoma): > 100 µM | TGI (786-0 renal): > 100 µM | TGI (MDA-N): > 100 µM | TGI (MCF7 breast): > 100 µM | TGI (IGROV1 ovarian): > 100 µM | TGI (MDA-MB-231 breast): > 100 µM | TGI (MDA-MB-435): > 100 µM | TGI (SNB-19 CNS): > 100 µM | TGI (A549 NSCLC): > 100 µM | TGI (OVCAR-4 ovarian): > 100 µM | TGI (CAKI-1 renal): > 100 µM | TGI (PC-3 prostate): > 100 µM | TGI (NCI-H522 lung): > 100 µM | TGI (OVCAR-5 ovarian): > 100 µM | TGI (SK-MEL-2 melanoma): > 100 µM | TGI (HT29 colon): > 100 µM | TGI (OVCAR-3 ovarian): > 100 µM | TGI (BT-549 breast): > 100 µM | TGI (ACHN renal): > 100 µM | TGI (SF-295 CNS): > 100 µM | TGI (HCT-116 colon): > 100 µM | TGI (NCI/ADR-RES ovarian): > 100 µM | TGI (RXF 393 renal): > 100 µM | TGI (MALME-3M melanoma): > 100 µM | TGI (HOP-92 NSCLC): > 100 µM | TGI (U251 CNS): > 100 µM | TGI (A498 renal): > 100 µM | TGI (SN12C renal): > 100 µM | TGI (CCRF-CEM leukemia): > 100 µM | TGI (UO-31 renal): > 100 µM | TGI (EKVX NSCLC): > 100 µM | TGI (HL-60(TB) leukemia): > 100 µM | TGI (SK-MEL-28 melanoma): > 100 µM | TGI (TK-10 renal): > 100 µM | TGI (UACC-62 melanoma): > 100 µM | TGI (HS 578T breast): > 100 µM | TGI (M14 melanoma): > 100 µM | TGI (SF-268 CNS): > 100 µM | TGI (OVCAR-8 ovarian): > 100 µM | TGI (RPMI-8226 leukemia): > 100 µM | TGI (MOLT-4 leukemia): > 100 µM | TGI (DU-145 prostate): > 100 µM | TGI (K-562 leukemia): > 100 µM | TGI (SNB-75 CNS): > 100 µM | TGI (NCI-H23 lung): > 100 µM | TGI (KM12 colon): > 100 µM | TGI (SF-539 CNS): > 100 µM | TGI (SW-620 colon): > 100 µM | TGI (HCT-15 colon): > 100 µM
